How the values were obtained:
Sirt2 [1] = target: T1, Sirt2 (Homo sapiens, UniProt Q8IXJ6); experiment: Sirt2 in vitro deacetylation assay (ZMAL, trypsin-based fluorescence); type: biochemical; settings: for IC50: deacetylation, mean ± SD
T1 construct: the respective sirtuin (Sirt1_134–747, Sirt2_56–356, or Sirt3_118–395) was mixed with; made in house; host or cells: Escherichia coli BL21 Star (DE3)
T1 sequence (Q8IXJ6 56-356): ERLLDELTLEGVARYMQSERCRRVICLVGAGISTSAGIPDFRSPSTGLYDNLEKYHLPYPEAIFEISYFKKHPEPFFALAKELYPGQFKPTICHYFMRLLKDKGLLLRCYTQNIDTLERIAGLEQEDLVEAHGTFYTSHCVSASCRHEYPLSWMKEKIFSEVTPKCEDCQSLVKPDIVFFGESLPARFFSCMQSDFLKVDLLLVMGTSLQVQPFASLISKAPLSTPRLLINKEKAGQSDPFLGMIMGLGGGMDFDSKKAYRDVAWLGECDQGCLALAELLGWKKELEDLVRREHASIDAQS

Sirt1 = target: T2, Sirt1 (Homo sapiens, UniProt Q96EB6); experiment: Sirt1 in vitro deacetylation assay (ZMAL); type: biochemical
T2 construct: the respective sirtuin (Sirt1_134–747, Sirt2_56–356, or Sirt3_118–395) was mixed with; made in house; host or cells: Escherichia coli BL21 Star (DE3)
T2 sequence (Q96EB6 134-747): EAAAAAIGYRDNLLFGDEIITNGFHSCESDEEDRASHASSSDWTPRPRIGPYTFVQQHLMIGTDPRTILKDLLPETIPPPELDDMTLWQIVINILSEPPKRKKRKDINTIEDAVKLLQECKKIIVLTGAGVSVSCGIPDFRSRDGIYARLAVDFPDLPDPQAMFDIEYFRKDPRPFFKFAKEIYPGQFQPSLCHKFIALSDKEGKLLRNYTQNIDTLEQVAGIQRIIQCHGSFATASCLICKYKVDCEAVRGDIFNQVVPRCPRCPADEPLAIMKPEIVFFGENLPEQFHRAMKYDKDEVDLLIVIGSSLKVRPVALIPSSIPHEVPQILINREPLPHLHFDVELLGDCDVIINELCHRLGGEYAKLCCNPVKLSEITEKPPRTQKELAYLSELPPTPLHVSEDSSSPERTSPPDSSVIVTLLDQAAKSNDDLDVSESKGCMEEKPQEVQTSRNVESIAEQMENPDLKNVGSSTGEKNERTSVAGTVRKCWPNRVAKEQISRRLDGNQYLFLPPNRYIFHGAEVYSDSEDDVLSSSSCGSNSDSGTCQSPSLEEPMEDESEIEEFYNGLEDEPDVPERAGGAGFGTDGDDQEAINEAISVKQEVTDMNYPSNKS

Sirt3 = target: T3, Sirt3 (Homo sapiens, UniProt Q9NTG7); experiment: Sirt3 in vitro deacetylation assay (ZMAL); type: biochemical
T3 construct: the respective sirtuin (Sirt1_134–747, Sirt2_56–356, or Sirt3_118–395) was mixed with; made in house; host or cells: Escherichia coli BL21 Star (DE3)
T3 sequence (Q9NTG7 118-395): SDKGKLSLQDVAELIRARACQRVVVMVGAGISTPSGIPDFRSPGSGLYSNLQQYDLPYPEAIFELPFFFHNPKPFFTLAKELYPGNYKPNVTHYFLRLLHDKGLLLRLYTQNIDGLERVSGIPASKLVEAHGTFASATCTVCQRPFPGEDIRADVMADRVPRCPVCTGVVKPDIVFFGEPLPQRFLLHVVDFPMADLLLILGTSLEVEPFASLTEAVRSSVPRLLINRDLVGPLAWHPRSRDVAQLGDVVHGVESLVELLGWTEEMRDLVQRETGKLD

HDAC1 = target: T4, HDAC1 (Homo sapiens, UniProt Q13547); experiment: HDAC1 in vitro deacetylation assay (ZMAL); type: biochemical; settings: deacetylation, mean ± SD
T4 construct: purchased BPS Bioscience 50051
T4 sequence (Q13547 whole entry): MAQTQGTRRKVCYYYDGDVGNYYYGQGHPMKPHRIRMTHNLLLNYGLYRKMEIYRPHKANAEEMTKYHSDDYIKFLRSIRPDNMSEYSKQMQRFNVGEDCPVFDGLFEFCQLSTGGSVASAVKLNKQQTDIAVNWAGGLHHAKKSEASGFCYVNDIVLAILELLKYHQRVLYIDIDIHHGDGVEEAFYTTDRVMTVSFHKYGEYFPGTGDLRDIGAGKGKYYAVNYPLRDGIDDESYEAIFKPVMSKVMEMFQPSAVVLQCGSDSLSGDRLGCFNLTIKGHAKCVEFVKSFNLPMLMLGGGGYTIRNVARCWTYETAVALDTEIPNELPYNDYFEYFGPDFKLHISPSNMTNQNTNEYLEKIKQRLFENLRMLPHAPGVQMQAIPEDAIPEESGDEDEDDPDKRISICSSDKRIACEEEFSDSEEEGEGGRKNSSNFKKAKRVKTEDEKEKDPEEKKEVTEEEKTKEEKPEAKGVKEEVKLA

Sirt2 (demyristoylation) = target: T5, Sirt2 (demyristoylation) (Homo sapiens, UniProt Q8IXJ6); experiment: Discontinuous Sirt2 demyristoylation assay (ZMML substrate); type: biochemical; settings: for IC50: mean ± SD
T5 construct: the respective sirtuin (Sirt1_134–747, Sirt2_56–356, or Sirt3_118–395) was mixed with; made in house; host or cells: Escherichia coli BL21 Star (DE3)
T5 sequence (Q8IXJ6 56-356): T1 sequence (Q8IXJ6 56-356)

[2] = tested on: HGC27 gastric carcinoma cells; experiment: Cell viability assay (MTS) HGC27; type: cell-based; settings: 72 h; for HGC27 cellular effect: @ 50 μM
Method: (§1) Cell viability assays of HGC27 and PC-3M-luc cells were performed by using the Celltiter 96 Aqueous Nonradioactive Proliferation Assay (Promega). Cells were seeded in sterile 96-well plates at a density of 2000 cells per well and incubated overnight at 37 °C and 5% CO2. Compound or vehicle were added to a final concentration of 0.5% DMSO. […] Cells were seeded at densities of 10^4 cells/well for W1 cells or 2 × 10^3 cells/well for MCF-7 cells. Tests were performed in 96-well plates (Sarstedt AG, Nümbrecht, Germany). After incubation overnight, cells were supplemented with half logarithmic dilution series of the indicated compounds and DPBS (PAN Biotech GmbH, Aidenbach, Germany) as control. Then 72 h after addition of cytostatic treatment, the MTT solution (20 μL, 5 mg/mL) was added into the wells for 1 h at 37 °C and 5% CO2 until formazan crystals were formed. The supernatant was removed, and the cells were dissolved in 200 μL of DMSO. Absorption was analyzed at 570 nm, with background subtraction at 690 nm, using a plate reader (Thermomultiscan EX, Thermo, Schwerte, Germany). Cell viability was then determined by nonlinear regression and a four-parameter logistic equation with variable hill slope. […] The significance of the difference of the effects of 33 and 4 + 57 was determined by using an unpaired, two-tailed t test with Welch’s correction, implemented in GraphPad Prism 8.4.0 (GraphPad, USA). Statistical significance was accepted if p < 0.05. Asterisks indicate *p < 0.05, **p < 0.01.

W1 ovarian cancer cells = experiment: Cell viability assay (MTT) W1; type: cell-based; settings: 72 h; for W1 cellular effect: @ 50 μM
Method: as §1

[3] = tested on: MCF-7 breast cancer cells; experiment: Cell viability assay (MTT) MCF-7; type: cell-based; settings: 72 h; for MCF-7 cellular effect: @ 50 μM
Method: as §1

[4] = tested on: PC-3M-luc prostate cancer cells; experiment: Cell viability assay (MTS) PC-3M-luc; type: cell-based; settings: 72 h; for PC-3M-luc cellular effect: @ 50 μM
Method: as §1

HDAC6 = target: T6, HDAC6 (Homo sapiens, UniProt Q9UBN7); experiment: HDAC6 in vitro deacetylation assay (ZMAL); type: biochemical; parameters: purchased BPS Bioscience 50006; settings: deacetylation, mean ± SD
T6 sequence (Q9UBN7 1-1215): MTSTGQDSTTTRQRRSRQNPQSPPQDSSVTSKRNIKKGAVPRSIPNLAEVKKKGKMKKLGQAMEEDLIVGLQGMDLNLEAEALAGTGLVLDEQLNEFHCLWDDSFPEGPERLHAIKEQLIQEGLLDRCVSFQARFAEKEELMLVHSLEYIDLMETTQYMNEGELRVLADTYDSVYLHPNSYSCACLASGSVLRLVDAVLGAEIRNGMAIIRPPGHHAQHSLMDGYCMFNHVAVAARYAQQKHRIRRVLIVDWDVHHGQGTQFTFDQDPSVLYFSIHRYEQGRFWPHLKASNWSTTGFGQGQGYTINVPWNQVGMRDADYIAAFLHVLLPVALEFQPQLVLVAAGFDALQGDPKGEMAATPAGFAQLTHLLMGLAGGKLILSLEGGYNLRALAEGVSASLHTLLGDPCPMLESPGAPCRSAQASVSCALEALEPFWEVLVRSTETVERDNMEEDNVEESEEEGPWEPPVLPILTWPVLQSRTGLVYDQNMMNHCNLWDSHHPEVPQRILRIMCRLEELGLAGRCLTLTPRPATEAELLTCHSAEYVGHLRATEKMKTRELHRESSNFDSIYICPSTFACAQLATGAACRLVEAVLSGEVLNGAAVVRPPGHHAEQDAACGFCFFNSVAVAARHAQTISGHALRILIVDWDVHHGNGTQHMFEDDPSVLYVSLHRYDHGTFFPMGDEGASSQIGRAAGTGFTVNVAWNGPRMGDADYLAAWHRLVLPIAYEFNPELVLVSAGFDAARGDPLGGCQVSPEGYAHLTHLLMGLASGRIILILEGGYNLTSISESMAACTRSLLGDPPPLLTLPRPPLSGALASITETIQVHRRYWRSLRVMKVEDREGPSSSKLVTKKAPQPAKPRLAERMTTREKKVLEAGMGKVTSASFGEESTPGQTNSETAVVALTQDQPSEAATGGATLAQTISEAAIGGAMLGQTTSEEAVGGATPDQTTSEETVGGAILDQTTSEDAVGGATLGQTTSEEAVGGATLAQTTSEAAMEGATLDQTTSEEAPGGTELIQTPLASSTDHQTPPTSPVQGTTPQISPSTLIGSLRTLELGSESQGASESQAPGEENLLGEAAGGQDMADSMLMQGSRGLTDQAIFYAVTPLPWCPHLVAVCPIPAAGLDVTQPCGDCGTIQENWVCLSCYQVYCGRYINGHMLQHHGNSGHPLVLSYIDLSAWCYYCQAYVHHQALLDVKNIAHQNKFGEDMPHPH

Sirt2 [5] = target: T7, Sirt2 (Homo sapiens, UniProt Q8IXJ6); experiment: Cell-based NanoBRET assay for Sirt2 target engagement in HEK293T cells; settings: tracer SirReal-TAMRA 2 μM
T7 construct: expressed in transfected cells; host or cells: HEK293T
T7 sequence (Q8IXJ6 1-389): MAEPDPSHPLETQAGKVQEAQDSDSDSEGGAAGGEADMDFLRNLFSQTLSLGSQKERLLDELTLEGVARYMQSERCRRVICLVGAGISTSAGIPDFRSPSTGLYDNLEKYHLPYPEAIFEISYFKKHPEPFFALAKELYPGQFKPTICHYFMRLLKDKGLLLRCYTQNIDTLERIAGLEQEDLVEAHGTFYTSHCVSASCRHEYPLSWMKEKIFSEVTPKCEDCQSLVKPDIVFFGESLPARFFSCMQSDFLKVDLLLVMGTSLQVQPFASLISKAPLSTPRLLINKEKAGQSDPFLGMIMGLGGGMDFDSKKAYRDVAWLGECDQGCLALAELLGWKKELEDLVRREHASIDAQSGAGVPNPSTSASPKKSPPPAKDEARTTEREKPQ

| SMILES | IC50 (Sirt2 [1]) | inhibition at 20 µM (Sirt1) | inhibition at 20 µM (Sirt3) | IC50 (HDAC1) | IC50 (Sirt2 (demyristoylation)) | HGC27 cellular effect [2] | W1 cellular effect (W1 ovarian cancer cells) | MCF-7 cellular effect [3] | PC-3M-luc cellular effect [4] | IC50 (HDAC6) | inhibition at 20 µM (Sirt2 [1]; @ 20 μM) | Sirt2 inhibition (Sirt2 [1]; supplementary CSV, column IC50 Sirt2 [µM]) | inhibition at 5 µM (Sirt2 (demyristoylation); @ 5 μM, read-out: Sirt2 (demyristoylation) percentual inhibition) | Cellular Sirt2 binding (NanoBRET) (Sirt2 [5]) | EC50 ([2]; Homo sapiens, HGC-27, MTS, mean ± SD) | EC50 (W1 ovarian cancer cells; MTT, mean ± SD) | EC50 ([3]; Homo sapiens, MCF7, MTT, mean ± SD) | EC50 ([4]; PC-3M-luc, read-out: PC-3M-luc cell viability EC50, MTS, mean ± SD) |
| --- | --- | --- | --- | --- | --- | --- | --- | --- | --- | --- | --- | --- | --- | --- | --- | --- | --- | --- |
| Cc1cc(C)nc(SCC(=O)Nc2ncc(Cc3cccc(OCc4cn(CCOCCOCCOCCOCCC(=O)Nc5ccc(C(=O)NCc6ccc(C(=O)NO)cc6)cc5)nn4)c3)s2)n1 [Compound 44, 4-((4-(1-(4-((3-((2-(2-((4,6-Dimethylpyrimidin-2-yl)thio)acetamido)thiazol-5-yl)methyl)phenoxy)methyl)-1H-1,2,3-triazol-1-yl)-3,6,9,12-tetraoxapentadecan-15-amido)benzamido)methyl)-N-hydroxybenzamide] | 0.48 ± 0.04 µM | < 15% | < 15% | 0.6 ± 0.03 µM | 34 ± 2 µM | ni ^b (ni = no inhibition (cellular effect <20% @ 50 μM)) | ni ^b (ni = no inhibition (cellular effect <20% @ 50 μM)) | ni ^b (ni = no inhibition (cellular effect <20% @ 50 μM)) | ni ^b (ni = no inhibition (cellular effect <20% @ 50 μM)) | 0.0096 ± 0.0003 µM |  |  |  |  |  |  |  |  |
| Cc1cc(C)nc(SCC(=O)Nc2ncc(Cc3cccc(OCc4cn(CCOCCOCCOCCOCCOCCOCCOCCOCCOCCOCCC(=O)Nc5ccc(C(=O)NCc6ccc(C(=O)NO)cc6)cc5)nn4)c3)s2)n1 [Compound 45, 4-((4-(1-(4-((3-((2-(2-((4,6-Dimethylpyrimidin-2-yl)thio)acetamido)thiazol-5-yl)methyl)phenoxy)methyl)-1H-1,2,3-triazol-1-yl)-3,6,9,12,15,18,21,24,27,30-decaoxatritriacontan-33-amido)benzamido)methyl)-N-hydroxybenzamide] | 0.54 ± 0.01 µM | < 15% | < 15% | 0.46 ± 0.05 µM | 2.8 ± 0.6 µM | ni ^b (ni = no inhibition (cellular effect <20% @ 50 μM)) | ni ^b (ni = no inhibition (cellular effect <20% @ 50 μM)) | ni ^b (ni = no inhibition (cellular effect <20% @ 50 μM)) | ni ^b (ni = no inhibition (cellular effect <20% @ 50 μM)) | 0.017 ± 0.001 µM |  |  |  |  |  |  |  |  |
| CCCCC(=O)N(CCCC)Cc1ccc(C(=O)NO)cc1 [Compound 57, 4-((N-Butylpentanamido)methyl)-N-hydroxybenzamide] |  |  |  |  |  |  |  |  |  |  | < 15% | n.i. | < 15% | no Sirt2 binding | 21.1 ± 1.6 µM | 33.6 ± 4.1 µM | 16.3 ± 5.9 µM | 30.1 ± 2.3 µM |

— paper PMC10641818, “Development of First-in-Class Dual Sirt2/HDAC6 Inhibitors as Molecular Tools for Dual Inhibition of Tubulin Deacetylation” (Journal of Medicinal Chemistry, 2023)
